Laboratory results reported in ChEMBL document CHEMBL4219130, “Two new lathyrane-type diterpenoid glycosides with IL-6 production inhibitory activity from the roots of Euphorbia kansui” (Bioorg Med Chem Lett, 2018).
Active and inactive are the calls of the source. The calls are words filed in the database; no cut-off is given here.

Columns and labels:
Format in all cases: functional, cell-based
[1] = system: HMC1; assay: Antiinflammatory activity in human HMC1 cells assessed as reduction in PMA/ionophore A23187-induced TNFalpha mRNA expression at 0.8 to 20 uM pretreated for 30 mins followed by PMA/ionophore challenge measured after 24 hrs by real-time PCR analysis
[2] = system: HMC1; assay: Antiinflammatory activity in human HMC1 cells assessed as reduction in PMA/ionophore A23187-induced IL-6 mRNA expression at 0.8 to 20 uM pretreated for 30 mins followed by PMA/ionophore challenge measured after 24 hrs by real-time PCR analysis
[3] = system: HMC1; assay: Antiinflammatory activity in human HMC1 cells assessed as reduction in PMA/ionophore A23187-induced IL-6 production
[4] = system: HMC1; assay: Antiinflammatory activity in human HMC1 cells assessed as reduction in PMA/ionophore A23187-induced IL-1beta mRNA expression at 0.8 to 20 uM pretreated for 30 mins followed by PMA/ionophore challenge measured after 24 hrs by real-time PCR analysis

IC50 [3] [nM] | SMILES | Activity [1] | Activity [2] | Activity [4]
2960 | C/C1=C\C2=C(C[C@H](C)C2=O)[C@@H](O[C@@H]2O[C@H](CO)[C@@H](O)[C@H](O)[C@H]2O)[C@H](C)C[C@@H]2[C@H](C[C@H]1O)[C@@]2(C)CO | Active | Active | Active
1940 | C/C1=C\C2=C(C[C@H](C)C2=O)[C@@H](O)[C@H](C)C[C@@H]2[C@H](C[C@H]1O)[C@@]2(C)CO[C@@H]1O[C@H](CO)[C@@H](O)[C@H](O)[C@H]1O |  |  | 
